Measured values published in US20250361277A1, “PROTEASE-RESPONSIVE SURFACE-POTENTIAL-TUNABLE PEPTIDE CONSTRUCTS FOR SELECTIVE IMAGING AND ACCURATE INHIBITOR SCREENING” (The Regents of the University of California, priority 2024, published 2025).
Where a name gives a salt, the structure may show the parent alone. Read-outs that look alike come from different tables or passages of the source. No end group written: not given here.

How the values were obtained:
MCF-7-GFP cells = experiment: CLSM imaging of MCF-7-GFP cells (TMPRSS2 high expression); type: cell-based; conditions: 10 μM probe, 1 h
Protocol: (§1) TMPRSS2 selective imaging in cancer cells with EGTP.
(§2) Incubation living cells with probes.
(§3) Confocal laser scanning microscopy.

A549 cells = experiment: CLSM imaging of A549 cells (TMPRSS2 low expression); type: cell-based; conditions: 10 μM probe, 1 h
Protocol: as §1, §2, §3

HeLa cells = type: cell-based
Protocol: (§4) The TMPRSS2 selective imaging capability of EGTP was tested via the three different cell lines.

TMPRSS2 [1] = target: T1, TMPRSS2 (Homo sapiens, UniProt O15393); experiment: Cleavage of probes by recombinant TMPRSS2 (HPLC and ESI-MS); type: biochemical; conditions: incubation for 1 h at 37° C. in 20 mM Tris-HCl buffer (pH 8.0)
T1 sequence (O15393 whole entry): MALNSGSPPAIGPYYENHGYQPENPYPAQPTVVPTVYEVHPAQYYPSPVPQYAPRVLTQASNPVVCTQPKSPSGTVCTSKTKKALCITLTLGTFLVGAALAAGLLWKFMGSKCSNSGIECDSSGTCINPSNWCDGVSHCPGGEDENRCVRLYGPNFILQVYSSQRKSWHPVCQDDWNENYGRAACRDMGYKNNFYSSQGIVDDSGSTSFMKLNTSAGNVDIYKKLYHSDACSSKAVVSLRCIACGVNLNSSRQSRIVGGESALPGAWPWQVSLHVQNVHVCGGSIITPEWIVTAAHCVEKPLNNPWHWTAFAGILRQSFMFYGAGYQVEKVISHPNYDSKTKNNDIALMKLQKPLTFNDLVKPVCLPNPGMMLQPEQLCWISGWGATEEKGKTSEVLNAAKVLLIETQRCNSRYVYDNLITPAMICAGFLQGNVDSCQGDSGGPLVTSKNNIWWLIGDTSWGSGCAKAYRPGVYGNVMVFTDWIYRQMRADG

TMPRSS2 [2] = target: T1, TMPRSS2; experiment: Enzymatic fluorescence assay of probes with TMPRSS2; type: biochemical; set-up: expressed in transfected cells; host or cells: TMPRSS2-Vero cells; conditions: Tris-HCl buffer with 1% DMSO, excitation 405 nm
Protocol: Recombinant TMPRSS2 was added into the working solution and then diluted to a total of 100 μl with the same Tris-HCl buffer. The reaction mixture was incubated at 37° C. for 1 h for UV-Vis absorption and fluorescence measurement. The solution was excited at 405 nm, and the emission was collected from 430 nm to 800 nm.

TMPRSS2 [3] = target: T1, TMPRSS2; experiment: TMPRSS2 inhibitor screening with EGTP in TMPRSS2-Vero cells (CLSM); set-up: effect of inhibitor on yellow fluorescence of EGTP: dose or concentration left out as unconfirmed; conditions: for effect of inhibitor on fluorescence intensity of EGTP: 100 nM inhibitor 1 h, 10 μM EGTP 1 h
Protocol: (§5) To further screen TMPRSS2 inhibitors with EGTP, Vero cells and TMPRSS2-Vero cells as robust cell models were chosen for cell imaging (FIG. 4a). Vero cells and TMPRSS2-Vero cells were incubated with different concentrations (1 mM, 5 mM, 10 mM, and 20 mM) of PyTPE and EGTP (Figures S23, S24, S25, and S26).
(§6) Incubation living cells with probes. For confocal laser scanning microscopy imaging, A549 cells, HeLa cells, MCF-7-GFP cells, Vero cells, and TMPRSS2-Vero cells were seeded into cell culture dishes at a density of 2.0×10^5 in growth medium (DMEM supplemented with 10% FBS, 200 mL). After overnight incubation, the cells were washed with phosphate-buffered saline (PBS, pH 7.4) three times. A solution of the indicated probe in PBS was then added, and the cells were incubated in a 5% CO2 atmosphere at 37° C. for further use. […] The supernatant was then discarded, and the cells were washed gently twice with PBS and fixed with 2% paraformaldehyde (PFA) at room temperature for 20 min prior to optical imaging.
(§7) Confocal laser scanning microscopy. […] A 405 nm laser was chosen for the excitation of AIEgens and the emission was collected at 550-620 nm. A 488 nm laser was chosen for the excitation of GFP (or MTG), the emission was collected at 500-530 nm. […] All fluorescence images were analyzed with an IMAGE™ software (Zeiss).

[4] = tested on: A549 cells, HeLa cells, and MCF-7-GFP cells
Protocol: as §4
Cytotoxicity assay. […] The fluorescence of Resazurin solution at 690 nm using an excitation wavelength of 560 nm was recorded by a SYNERGY H1™ microplate reader (BioTek) with standard operation procedures.

[5] = tested on: plasmid transfected HEK 293T cells; type: cell-based
[6] = target: Recombinant SARS-CoV-2 Mpro (Severe acute respiratory syndrome coronavirus 2, UniProt P0DTD1)
[7] = tested on: noninfected TMPRSS2-Vero cells
[8] = tested on: SARS-CoV-2 infected TMPRSS2-Vero cells; type: cell-based, SARS-CoV-2 (USA-WA1/2020); conditions: for yellow and red fluorescence of infected cells: 10 μM probe; for red and yellow fluorescence and cell morphology of infected cells: PSGMR versus PMR
[9] = tested on: Mpro plasmid-transfected HEK 293T cells
Recombinant Mpro = Recombinant Mpro (Severe acute respiratory syndrome coronavirus 2, UniProt P0DTD1)
[10] = DLS hydrodynamic size and zeta potential of PSGMR without and with Mpro; type: physicochemical
Protocol: To validate the enzyme digestion efficiency, PSGMR was incubated with different concentrations of Mpro. […] No increase in fluorescence was detected in the presence of the GC376, thus showing that the fluorescence increase was due to Mpro-mediated peptide cleavage. […] PSGMR was also treated under identical conditions with several commercial proteins to investigate probe specificity: papain-like protease, thrombin, bovine serum albumin, and hemoglobin. […] Dynamic light scattering (DLS) tests and transmission electron microscopy (TEM) of PSGMR were performed to de-termine the change of particle size and surface potential distribution after incubation with Mpro. The average hydro-dynamic size of PSGMR increased from 142 nm to 396 nm (FIG. 1h), and the mean zeta potential value decreased from 23.97 mV to 12.46 mV (FIG. 1i). […] This aggregation was confirmed by TEM (FIG. 1j). The 20 mM Tri-HCl buffer can lead to a uniform nanoparticle (˜78 nm) (Figure S18), and β-sheet structure of PSGMR was observed after incubation with Mpro or at high concentrations (Figures S19-S22).
The 1H and 13C NMR spectra were measured on a BRUKER ARX 300™ NMR spectrometer using chloroform-d (CDCl3-d) or dimethyl sulfoxide-d6 (DMSO-d6) as solvent and tetramethylsilane (TMS) as internal reference. Splitting patterns are reported as s (single), d (doublet), t (triplet), and m (multiplet). Peptides were synthesized using an AAPPTec ECLIPSE™ system through standard solid phase Fmoc syntheses on rink-amide resin. Electrospray ionization mass spectrometry (ESI-MS) data was acquired by using a MICROMASS QUATTRO ULTIMA™ mass spectrometer. High resolution mass spectra (HRMS) were recorded on a BRUKER MICROTOF II™ mass spectrometer system. High performance liquid chromatography (HPLC) was performed by using a SHIMADZU™ LC-40 HPLC system under the wavelength of 195 nm, 254 nm, and 405 nm. The sample was dissolved in water or acetonitrile, applied on a ZORBAX 300 BS™ C18 column (5 um, 9.4×250 mm) from Agilent, and eluted at 1.5 mL/min with a 40 min gradient from 10% to 95% solvent B where solvent A is water (0.05% TFA solution) and solvent B is acetonitrile (0.05% TFA solution). All products were purified by HPLC to reach a purity of 90%. UV-Vis absorption and fluorescence spectra were performed on a SYNERGY H1™ microplate reader (BioTek). Confocal laser scanning microscopy images were obtained on a Zeiss LSM880 confocal laser scanning microscope (Zeiss). Dynamic light scattering (DLS) measurements were performed on a NANO-ZS90 ZETASIZER™ (Malvern) to determine hydrodynamic sizes and zeta potential values of the nanosystems studied. Transmission electron microscopy (TEM) images were acquired using an FEI TECNAI F20™ instrument at an operation voltage of 200 kV.

[11] = tested on: SARS-CoV-2 infected TMPRSS2-Vero cells; experiment: SARS-CoV-2 infected TMPRSS2-Vero cells with PSGMR and Mpro inhibitor GC376 (CLSM); type: cell-based, SARS-CoV-2 (USA-WA1/2020)
TMPRSS2 [12] = target: T1, TMPRSS2; experiment: Impact of protease inhibitors on EGTP fluorescence with TMPRSS2 in buffer; type: biochemical; set-up: expressed in transfected cells; host or cells: TMPRSS2-Vero cells
TMPRSS2-Vero cells = type: cell-based
Protocol: as §5, §6, §7

Vero cells = experiment: CLSM imaging of Vero cells; conditions: 1, 5, 10, 20 mM as printed, 1 h
[13] = 10 μM PSGMR, increasing GC376 (2-12 μM)

TGP: control probe without polyglutamic acid: peptide QARGG (SEQ ID NO:2) linked by Propargylglycine (Pra) to the dye PyTPE (also: linked by Pra to dye PyTPE, end not given here)
yellow fluorescence in MCF-7-GFP cells (MCF-7-GFP cells): strong yellow fluorescence | yellow fluorescence in A549 cells (A549 cells): strong yellow fluorescence | yellow fluorescence in HeLa cells (HeLa cells; 10 μM probe, 1 h): strong yellow fluorescence | cleavage by TMPRSS2 (TMPRSS2 [1]): can be cleaved by TMPRSS2 | fluorescence intensity after incubation with TMPRSS2 (comparison of probes) (TMPRSS2 [2]): stronger than that of EGTP and EGEP

Cc1ccc(N)cc1C(=O)N[C@H](C)c1cccc2ccccc12 [GRL0617]
effect of inhibitor on fluorescence intensity of EGTP (TMPRSS2 [3]): no significant effect on the fluorescence intensity of EGTP

C#CC[C@H](NC(=O)CNC(=O)CNC(=O)[C@H](CCCNC(=N)N)NC(=O)[C@H](C)NC(=O)[C@H](CCC(N)=O)NC(=O)CNC(=O)CNC(=O)CNC(=O)[C@H](CCC(=O)O)NC(=O)[C@H](CCC(=O)O)NC(=O)[C@H](CCC(=O)O)NC(=O)[C@H](CCC(=O)O)NC(=O)[C@H](CCC(=O)O)NC(=O)[C@H](CCC(=O)O)NC(=O)[C@H](CCC(=O)O)NC(=O)[C@H](CCC(=O)O)NC(=O)[C@@H](N)CCC(=O)O)C(N)=O [EGT, EEEEEEEEEGGGQAR (SEQ ID NO:4)]
toxicity to cells ([4]; 1 μM to 20 μM, 48 h): negligible toxicity

(Pra)KLVFFGGGSAVLQ/SGFRKMAGGGRRRRRR [PSGMR]
high concentration that caused significant cytotoxicity (HEK 293T cells; HEK 293T cells, 48 h): 40 µM | fluorescence of FLIPGFP, PSGMR [5]: weak green and yellow fluo-rescence | fluorescence of FLIPGFP, PSGMR and PI [5]: Strong green, yellow and red fluorescence | green, red and yellow fluorescence intensities with incubation time [5]: markedly enhanced with the longer incubation time | cleavage by Mpro ([6]; pH 8): can be cleaved by Mpro between Q and S | red and yellow fluorescence and cell morphology of noninfected cells [7]: weak red and yellow fluorescence with normal cell morphology | killing / inhibition of infected cells [8]: can selectively kill SARS-CoV-2-infected cells | yellow (probe) and red (PI) fluorescence in infected cells [8]: strong yellow and red fluorescence | yellow and red fluorescence of infected cells [8]: significantly enhanced | average red fluorescence intensity of infected cells, higher than with PMR ([8]; PI channel): 600% | red and yellow fluorescence and cell morphology of infected cells [8]: bright red and yellow fluorescence with obvious cell mor-phologic dilatation | average yellow fluorescence intensity of infected cells, higher than with PMR ([8]; probe channel): 569% | cell viability after incubation with probe ([9]; Mpro plasmid-transfected cells): decreased | cytotoxicity (metabolic activity) ([9]; Mpro plasmid, higher concentration of 10 μM, 48 h): obviously cytotoxic | aggregation and fluorescence on incubation with Mpro (time-dependent spectra) (Recombinant Mpro): can aggregate easily with strong fluorescence | fluorescence intensity with different concentrations of Mpro (Recombinant Mpro): gradually enhanced with in-creasing Mpro concentration | probe specificity: fluorescence intensity with different proteins (Recombinant Mpro): clearly enhanced selectively with Mpro | time to fluorescence plateau at 590 nm (Recombinant Mpro): ≤ 20 min | average hydrodynamic size ([10]; after incubation with Mpro): 396 nm | mean zeta potential value ([10]; after incubation with Mpro): 12.46 mV | average hydrodynamic size ([10]; before incubation with Mpro): 142 nm | mean zeta potential value ([10]; before incubation with Mpro): 23.97 mV

CC(C)C[C@H](NC(=O)OCc1ccccc1)C(=O)N[C@@H](C[C@@H]1CCNC1=O)C(O)S(=O)(=O)[O-].[Na+] (stereo partly drawn) [GC376]
effect of inhibitor on fluorescence intensity of EGTP (TMPRSS2 [3]): no significant effect on the fluorescence intensity of EGTP | red and yellow fluorescence with inhibitor ([11]; 10 μM PSGMR and 2 μM, 6 μM, and 12 μM GC376): markedly decreased | average red fluorescence intensity, decrease [11, 13]: 32.6 to 11.6 times | average yellow fluorescence intensity, decrease [11, 13]: 5.8 to 3.6 times

CN(C)C(=O)COC(=O)Cc1ccc(OC(=O)c2ccc(NC(=N)N)cc2)cc1 [Camostat, camostat mesylate]
effect of inhibitor on fluorescence of EGTP with TMPRSS2 incubation (TMPRSS2 [12]): significantly reduced fluorescence of EGTP | effect of inhibitor on yellow fluorescence of EGTP (TMPRSS2 [3]; Camostat before adding EGTP): gradually decreased

(Pra)GSAVLQ/SGFRKMAGRRRRRR [PMR]
cleavage by Mpro [6]: can be cleaved by M^pro | cleavage by Mpro ([6]; pH 8): can be cleaved by Mpro between Q and S | killing / inhibition of infected cells [8]: can also inhibit infected cells | yellow and red fluorescence of infected cells [8]: weaker than that of PSGMR | red and yellow fluorescence and cell morphology of infected cells [8]: less than the infected cells with PSGMR | aggregation and fluorescence on incubation with Mpro (time-dependent spectra) (Recombinant Mpro): can easily aggregate with strong fluorescence | fluorescence intensity after incubation with Mpro (Recombinant Mpro): weaker than that of PSGMR

CGAVLQDDD [CGAVLQDDD (SEQ ID NO: 11)]
cleavage by Mpro [6]: not cleaved by Mpro

(Pra)KLVFFGSAVLQ/SGFRKMARRRRRR [PSMR]
cleavage by Mpro ([6]; pH 8): not | aggregation and fluorescence on incubation with Mpro (time-dependent spectra) (Recombinant Mpro): cannot aggregate with weak fluorescence | fluorescence intensity after incubation with Mpro (Recombinant Mpro): decreased upon incubation with Mpro

AVLQFFVLKC [AVLQFFVLKC (SEQ ID NO:12)]
cleavage by Mpro [6]: not cleaved by Mpro

TetraPhenylEthene Pyridinium [PyTPE]
cytotoxicity (metabolic activity) (HEK 293T cells): obviously cytotoxic | high concentration that caused significant cytotoxicity (HEK 293T cells): 20 µM | yellow fluorescence in TMPRSS2-Vero cells (TMPRSS2-Vero cells): enhanced with increasing concentrations | overlap of yellow fluorescence with Mito tracker green (MTG) (HeLa cells): overlapped well with the green fluorescence of MTG | yellow fluorescence in Vero cells (Vero cells): enhanced with increasing concentrations | concentration that can cause significant cytotoxicity [4]: > 5 µM | cytotoxicity (metabolic activity) [4]: obviously cytotoxic
